We go through 7 compounds from PMC8440459 (Neurotoxicology, 2021).

“Also recorded” adds a separate entry of the source.

The target in series [1] is T1, equine liver GST (Equus caballus, UniProt A0A9L0RPC4). Put plainly: Time dependency of equine liver GST inhibition. In kind it is biochemical. As to conditions: for Time dependency of inhibition of GST activity: aliquots after 1, 2 and 4 hours of incubation; for GST activity after 24-hour incubation: 100μM inhibitor, compared with 4 hours.
Series [2] addresses GST isolated from N27 dopaminergic cells (Rattus norvegicus, UniProt P04906). Put plainly: CDNB assay of GST isolated from N27 cells. The format is biochemical.
Series [3] deals with T1, equine liver GST. Put plainly: Reversibility of equine liver GST inhibition. Particulars: for Reversibility of inhibition of GST activity: 100μM inhibitor, with or without size exclusion column; for GST activity after application to Bio-Spin 6 Tris Columns / Inhibition of GST after incubation with known reversible inhibitor: 500μM, data not shown; for GST activity after application to Bio-Spin 6 Tris Columns: after column; for Inhibition of GST after incubation with known reversible inhibitor: before column. In kind it is biochemical.

In series [4] the target is bovine serum albumin (BSA) (Bos taurus, UniProt P02769). The series can be described thus: Nitro blue tetrazolium staining of BSA modified by DOPAL. As to conditions: 0.5mg/mL BSA, 4 hours at 37°C, L-cysteine effect at 1mM.
Chain of bovine serum albumin (BSA) (P02769 25-607): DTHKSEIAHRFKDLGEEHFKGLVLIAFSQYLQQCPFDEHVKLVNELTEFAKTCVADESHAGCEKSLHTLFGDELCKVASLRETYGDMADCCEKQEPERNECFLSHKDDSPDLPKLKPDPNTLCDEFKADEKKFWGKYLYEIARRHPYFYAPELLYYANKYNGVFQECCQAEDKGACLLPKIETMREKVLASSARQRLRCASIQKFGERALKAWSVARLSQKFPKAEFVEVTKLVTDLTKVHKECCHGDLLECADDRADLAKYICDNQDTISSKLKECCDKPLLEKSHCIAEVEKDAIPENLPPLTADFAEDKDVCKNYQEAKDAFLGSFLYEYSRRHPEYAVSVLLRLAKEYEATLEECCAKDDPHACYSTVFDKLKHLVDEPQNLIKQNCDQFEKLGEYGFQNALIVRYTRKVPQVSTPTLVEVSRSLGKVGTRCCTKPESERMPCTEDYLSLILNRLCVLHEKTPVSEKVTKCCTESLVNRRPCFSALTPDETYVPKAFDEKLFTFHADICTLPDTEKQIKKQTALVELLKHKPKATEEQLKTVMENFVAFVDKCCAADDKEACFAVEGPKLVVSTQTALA
Series [5] deals with T1, equine liver GST. The series can be described thus: Protection of GST activity from DOPAL, DA or DOPAC. The format is biochemical. Particulars: 1mM protectant, 100μM DA.
The target of series [6] is T1, equine liver GST. Put plainly: Nitro blue tetrazolium staining of equine liver GST. Particulars: 1mM protectant.
For series [7], the system named is dopaminergic cells. Particulars: ref Schamp and Doorn, 2017; cited from earlier work.
Series [8] concerns the target T1, equine liver GST. In kind it is biochemical. Particulars: 4 hours at 37°C.

Chain of GST isolated from N27 dopaminergic cells (P04906 whole entry): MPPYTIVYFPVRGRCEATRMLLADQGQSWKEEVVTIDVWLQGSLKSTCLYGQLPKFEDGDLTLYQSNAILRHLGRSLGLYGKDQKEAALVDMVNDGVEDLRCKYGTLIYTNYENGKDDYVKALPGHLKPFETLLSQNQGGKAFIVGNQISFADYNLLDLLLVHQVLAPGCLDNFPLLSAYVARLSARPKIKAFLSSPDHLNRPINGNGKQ

Turning to `O=C(O)Cc1ccc(O)c(O)c1` [DOPAC, 3,4-dihydroxyphenylacetic acid], in series [1], the “Time dependency of inhibition of GST activity” value is listed as “time dependent”. Inhibition in series [2] was half-maximal at 260 µM (IC50). In addition, the “Reversibility of inhibition of GST activity” value in series [3] is given as “irreversible”.

Turning to `N[C@@H](CS)C(=O)O` [L-cysteine], the “Reduction of NBT staining of BSA modified by 200μM DOPAL” value in series [4] was “significantly reduced NBT staining”.

For `CCCCCCSC[C@H](NC(=O)CC[C@H](N)C(=O)O)C(=O)NCC(=O)O` [S-hexylglutathione], in series [3], the “GST activity after application to Bio-Spin 6 Tris Columns” value was “regained the full value of its original activity” and the “Inhibition of GST after incubation with known reversible inhibitor” value was “significant inhibition”.

For `O=C(O)/C=C/c1ccc(O)c(O)c1` [caffeic acid], in series [3], the “GST activity after application to Bio-Spin 6 Tris Columns” value was “regained the full value of its original activity” and the “Inhibition of GST after incubation with known reversible inhibitor” value is recorded as “significant inhibition”.

As to `NCCC(=O)N[C@@H](Cc1cnc[nH]1)C(=O)O` [Carnosine, carnosine], the “Protection of GST activity against inhibition by DA” value in series [5] is “significant protection; also recorded: partial activity retention”. For the same compound, the “Reduction of NBT staining of BSA modified by 200μM DOPAL” value in series [4] was “did not significantly reduce protein modification”. The “Protection against modification of equine liver GST by 100 μM DOPAL (NBT stain)” value in series [6] is given as “moderately protective”.

Consider `O=CCc1ccc(O)c(O)c1` [DOPAL, 3,4-dihydroxyphenylacetaldehyde], for which, in series [1], the “GST activity after 24-hour incubation” value is listed as “almost completely nulls enzyme activity” and the “Time dependency of inhibition of GST activity” value is given as “time dependent”. For the same compound, inhibition in series [2] was half-maximal at 31.5 µM (IC50). Besides, the “Concentration toxic to dopaminergic cells” value in series [7] is 7 µM. Further, in series [8], the “Concentration giving significant inhibition of commercially available GST” value stood at 5 µM. In addition, the “Reversibility of inhibition of GST activity” value in series [3] is “irreversible”.

Consider `NCCc1ccc(O)c(O)c1` [DA, dopamine], for which, in series [1], the “GST activity after 24-hour incubation” value is “almost completely nulls enzyme activity” and the “Time dependency of inhibition of GST activity” value was “time dependent”. This compound yielded a half-maximal inhibitory concentration (IC50) in series [2] of 82.3 µM. In addition, in series [3], the “Reversibility of inhibition of GST activity” value is “irreversible”.

As usually defined, the IC50 is the concentration at which inhibition is half-maximal. Read a low IC50 as greater potency.
